Experimental data taken from patent US20080300231A1, “Antibacterial amide macrocycles VI” (priority 2005, published 2008).
Converted amounts (≈) assume the structure as drawn. Structures can show the parent of a compound that is named as a salt. Where two headings read alike, the source gives them in different places.

How the values were obtained:
S. aureus T17 = assay: Minimum inhibitory concentration (MIC), biphenomycin-resistant S. aureus T17; type: cell-based; conditions: Staphylococcus aureus; biphenomycin-resistant S. aureus T17; read-out: MIC S. aureus T17
Method: (§1) Determination of the Minimum Inhibitory Concentration (MIC)
(§2) The minimum inhibitory concentration (MIC) is the minimum concentration of an antibiotic with which the growth of a test microbe is inhibited over 18-24 h. The inhibitor concentration can in these cases be determined by standard microbiological methods (see, for example, The National Committee for Clinical Laboratory Standards. Methods for dilution antimicrobial susceptibility tests for bacteria that grow aerobically; approved standard-fifth edition. NCCLS document M7-A5 [ISBN 1-56238-394-9]. NCCLS, 940 West Valley Road, Suite 1400, Wayne, Pa. 19087-1898 USA, 2000). The MIC of the compounds of the invention is determined in the liquid dilution test on the 96-well microtitre plate scale. The bacterial microbes are cultivated in a minimal medium (18.5 mM Na2HPO4, 5.7 mM KH2PO4, 9.3 mM NH4Cl, 2.8 mM MgSO4, 17.1 mM NaCl, 0.033 μg/ml of thiamine hydrochloride, 1.2 μg/ml of nicotinic acid, 0.003 μg/ml of biotin, 1% glucose, 25 μg/ml of each proteinogenic amino acid with the exception of phenylalanine; [H.-P. Kroll; unpublished]) with addition of 0.4% BH broth (test medium). In the case of Enterococcus faecium L4001, heat-inactivated fetal calf serum (FCS; GibcoBRL, Germany) is added to the test medium in a final concentration of 10%. Overnight cultures of the test microbes are diluted to an OD578 of 0.001 (to 0.01 in the case of enterococci) in fresh test medium, and incubated 1:1 with dilutions of the test substances (1:2 dilution steps) in test medium (200 μl final volume). The cultures are incubated at 37° C. for 18-24 hours; enterococci in the presence of 5% CO2
(§3) The lowest substance concentration in each case at which no visible bacterial growth occurs any more is defined as the MIC.
(§4) Alternative Method for Determining the Minimum Inhibitory Concentration (MIC)
(§5) The minimum inhibitory concentration (MIC) is the minimum concentration of an antibiotic with which the growth of a test microbe is inhibited over 18-24 h. The inhibitor concentration can in these cases be determined by standard microbiological methods with modified medium in an agar dilution test (see, for example, The National Committee for Clinical Laboratory Standards. Methods for dilution antimicrobial susceptibility tests for bacteria that grow aerobically; approved standard-fifth edition. NCCLS document M7-A5 [ISBN 1-56238-394-9]. NCCLS, 940 West Valley Road, Suite 1400, Wayne, Pa. 19087-1898 USA, 2000). The bacterial microbes are cultivated on 1.5% agar plates which contain 20% defibrinated horse blood. The test microbes, which are incubated overnight on Columbia blood agar plates (Becton-Dickinson), are diluted in PBS, adjusted to a microbe count of about 5×10^5 microbes/ml and placed dropwise (1-3 μl) on test plates. The test substances comprise different dilutions of the test substances (1:2 dilution steps). The cultures are incubated at 37° C. in the presence of 5% CO2 for 18-24 hours.
(§6) The lowest substance concentration in each case at which no visible bacterial growth occurred any more is defined as the MIC and is reported in μg/ml.
The S. aureus strain T17 is isolated in vivo. CFW1 mice are infected intraperitoneally with 4×10^7 S. aureus 133 cells per mouse. 0.5 h after the infection, the animals are treated intravenously with 50 mg/kg biphenomycin B. The kidneys are removed from the surviving animals on day 3 after the infection. After homogenization of the organs, the homogenates are plated out as described for RN4220Bi^R on antibiotic-free and antibiotic-containing agar plates and incubated at 37° C. overnight. […] About 20 of these colonies are tested for the biphenomycin B MIC, and a colony with a MIC of >50 μM is selected for further cultivation, and the strain is referred to as T17.

S. aureus 133 [1] = assay: Minimum inhibitory concentration (MIC), S. aureus 133; type: cell-based
Method: as §1, §2, §3, §4, §5, §6

[2] = system: Enterococcus faecium L4001; assay: Minimum inhibitory concentration (MIC), E. faecium L4001; type: cell-based; conditions: Enterococcus faecium
Method: as §1, §2, §3, §4, §5, §6

[3] = target: S. aureus 133 Translation; assay: S. aureus in vitro transcription-translation assay (firefly luciferase, S30 extract); type: biochemical; conditions: 50% inhibition of the translation of firefly luciferase
Text: In Vitro Transcription-Translation with S. aureus Extracts
Construction of an S. aureus luciferase Reporter Plasmid
In order to construct a reporter plasmid which can be used in an in vitro transcription-translation assay from S. aureus the plasmid pBESTluc (Promega Corporation, USA) is used. The E. coli tac promoter present in this plasmid in front of the firefly luciferase is replaced with the capA1 promoter with appropriate Shine-Dalgarno sequence from S. aureus. The primers CAPFor 5′-CGGCCAAGCTTACTC-[…] […]-3′ and CAPRev 5′-[…]-3′ are used for this. The primer CAPFor contains the capA1 promoter, the ribosome binding site and the 5′ region of the luciferase gene. After PCR using pBESTluc as template it is possible to isolate a PCR product which contains the firefly luciferase gene with the fused capA1 promoter. This is, after restriction with ClaI and HindIII, ligated into the vector pBESTluc which has likewise been digested with ClaI and HindIII. The resulting plasmid p1a can be replicated in E. coli and can be used as template in the S. aureus in vitro transcription-translation test.
Preparation of S30 Extracts from S. aureus
Six litres of BHI medium are inoculated with a 250 ml overnight culture of an S. aureus strain and allowed to grow at 37° C. until the OD600 nm is 2-4. The cells are harvested by centrifugation and washed in 500 ml of cold buffer A (10 mM Tris acetate, pH 8.0, 14 mM magnesium acetate, 1 mM DTT, 1 M KCl). After renewed centrifugation, the cells are washed in 250 ml of cold buffer A with 50 mM KCl, and the resulting pellets are frozen at −20° C. for 60 min. The pellets are thawed on ice in 30 to 60 min and taken up to a total volume of 99 ml in buffer B (10 mM Tris acetate, pH 8.0, 20 mM magnesium acetate, 1 mM DTT, 50 mM KCl). 1.5 ml portions of lysostaphin (0.8 mg/ml) in buffer B are introduced into 3 precooled centrifuge cups and mixed with 33 ml of the cell suspension each. The samples are incubated at 37° C., shaking occasionally, for 45 to 60 min, before 150 μl of a 0.5 M DTT solution are added. The lysed cells are centrifuged at 30 000×g and 4° C. for 30 min. The cell pellet is taken up in buffer B and then centrifuged again under the same conditions, and the collected supernatants are combined. The supernatants are centrifuged again under the same conditions, and 0.25 volumes of buffer C (670 mM Tris acetate, pH 8.0, 20 mM magnesium acetate, 7 mM Na3 phosphoenolpyruvate, 7 mM DTT, 5.5 mM ATP, 70 μM amino acids (complete from Promega), 75 μg of pyruvate kinase (Sigma, Germany))/ml are added to the upper ⅔ of the supernatant. The samples are incubated at 37° C. for 30 min. The supernatants are dialysed against 2 l of dialysis buffer (10 mM Tris acetate, pH 8.0, 14 mM magnesium acetate, 1 mM DTT, 60 mM potassium acetate) in a dialysis tube with a 3500 Da cut-off with one buffer change at 4° C. overnight. The dialysate is concentrated to a protein concentration of about 10 mg/ml by covering the dialysis tube with cold PEG 8000 powder (Sigma, Germany) at 4° C. The S30 extracts can be stored in aliquots at −70° C.
Determination of the IC50 in the S. aureus In Vitro Transcription-Translation Assay
The inhibition of protein biosynthesis of the compounds can be shown in an in vitro transcription-translation assay. The assay is based on the cell-free transcription and translation of firefly luciferase using the reporter plasmid p1a as template and cell-free S30 extracts obtained from S. aureus. The activity of the resulting luciferase can be detected by luminescence measurement.
The amount of S30 extract or plasmid p1a to be employed must be tested anew for each preparation in order to ensure an optimal concentration in the assay. 3 μl of the substance to be tested, dissolved in 5% DMSO, are provided in an MTP. Then […] of a suitably concentrated plasmid solution p1a are added. […]

S. aureus 133 [4] = assay: Systemic infection with S. aureus 133 (mouse sepsis model); type: in vivo, mouse (female CFW1); conditions: i.p. infection, i.v. therapy 30 minutes after infection, survival recorded for 6 days
Method: Systemic Infection with S. aureus 133
The suitability of the compounds of the invention for the treatment of bacterial infections can be shown in various animal models. For this purpose, the animals are generally infected with a suitable virulent microbe and then treated with the compound to be tested, which is present in a formulation which is adapted to the particular therapy model.
For this purpose, S. aureus 133 cells are cultured overnight in BH broth (Oxoid, Germany). The overnight culture was diluted 1:100 in fresh BH broth and expanded for 3 hours. The bacteria which are in the logarithmic phase of growth are centrifuged and washed twice with buffered physiological saline solution. A cell suspension in saline solution with an extinction of 50 units is then adjusted in a photometer (Dr Lange LP 2W). After a dilution step (1:15), this suspension is mixed 1:1 with a 10% mucine suspension. 0.2 ml of this infection solution is administered i.p. per 20 g of mouse. This corresponds to a cell count of about 1-2×10^6 microbes/mouse. The i.v. therapy takes place 30 minutes after the infection. Female CFW1 mice are used for the infection experiment. The survival of the animals is recorded for 6 days. The animal model is adjusted so that untreated animals die within 24 h after the infection.

[5] = Staphylococcus aureus, 133, read-out: MIC S. aureus 133
[6] = L4001, read-out: MIC E. faecium L4001
[7] = Staphylococcus aureus, 133; read-out: MIC S. aureus 133
[8] = E. faecium L4001, test medium with 10% FCS, read-out: MIC E. faecium L4001

## CNCCN(CCN)C(=O)[C@@H]1Cc2cc(ccc2O)-c2ccc(O)c(c2)C[C@H](N)C(=O)N[C@@H](CCCN)C(=O)N1 [Example 3, (8S,11S,14S)-14-Amino-N-(2-aminoethyl)-11-(3-aminopropyl)-5,17-dihydroxy-N-[2-(methylamino)ethyl]-10,13-dioxo-9,12-diazatricyclo[14.3.1.1^2,6]henicosa-1(20),2(21),3,5,16,18-hexaene-8-carboxamide tetrahydrochloride]
S. aureus T17
  MIC: 4 mg/L
S. aureus 133 [1]; [5]
  MIC: 2 mg/L
[2]; [6]
  MIC: 8 mg/L
[3]
  IC50: 0.8 µM

## NCCC[C@@H]1NC(=O)[C@@H](N)Cc2cc(ccc2O)-c2ccc(O)c(c2)C[C@@H](C(=O)N2CCC[C@H]2C(=O)N[C@@H](CCCN)C(=O)NCCN)NC1=O [Example 1, 1-{[(8S,11S,14S)-14-Amino-11-(3-aminopropyl)-5,17-dihydroxy-10,13-dioxo-9,12-diazatricyclo[14.3.1.1^2,6]henicosa-1(20),2(21),3,5,16,18-hexaen-8-yl]carbonyl}-L-prolyl-N-(2-aminoethyl)-L-ornithinamide tetrahydrochloride]
S. aureus T17
  MIC: 4 mg/L
S. aureus 133 [1]; [5]
  MIC: 1 mg/L
[2]; [6]
  MIC: 2 mg/L
[3]
  IC50: 0.7 µM

## NCCC[C@@H]1NC(=O)[C@@H](N)Cc2cc(ccc2O)-c2ccc(O)c(c2)C[C@@H](C(=O)N2CCC[C@H]2C(=O)N[C@@H](CCCN)C(=O)NCCN)NC1=O.O=C(O)C(F)(F)F.O=C(O)C(F)(F)F.O=C(O)C(F)(F)F.O=C(O)C(F)(F)F [Example 2, 1-{[(8S,11S,14S)-14-Amino-11-(3-aminopropyl)-5,17-dihydroxy-10,13-dioxo-9,12-diazatricyclo[14.3.1.1^2,6]henicosa-1(20),2(21),3,5,16,18-hexaen-8-yl]carbonyl}-L-prolyl-N-(2-aminoethyl)-L-ornithinamide tetra(hydrotrifluoroacetate)]
S. aureus 133 [4]
  ED100 (therapeutic effect): 1.25 mg/kg

## NCCC[C@@H]1NC(=O)[C@@H](N)Cc2cc(ccc2O)-c2ccc(O)c(c2)C[C@@H](C(=O)N(CCN)CC(O)CN)NC1=O (stereo partly drawn) [Example 8]
S. aureus T17
  MIC: 4 mg/L (≈ 7 µM)
S. aureus 133 [1]; [7]
  MIC: 1 mg/L (≈ 1.75 µM)
[2]; [8]
  MIC: 16 mg/L (≈ 28 µM)
[3]
  IC50: 0.25 µM

## NCCC[C@@H]1NC(=O)[C@@H](N)Cc2cc(ccc2O)-c2ccc(O)c(c2)C[C@@H](C(=O)N(CCN)CC2CCCCN2)NC1=O (stereo partly drawn) [Example 9]
S. aureus T17
  MIC: 2 mg/L (≈ 3.36 µM)
S. aureus 133 [1]; [7]
  MIC: 4 mg/L (≈ 6.71 µM)
[2]; [8]
  MIC: 32 mg/L (≈ 53.7 µM)
[3]
  IC50: 0.33 µM

## NCCC[C@@H]1NC(=O)[C@@H](N)Cc2cc(ccc2O)-c2ccc(O)c(c2)C[C@@H](C(=O)N(CCN)CCO)NC1=O [Example 6]
S. aureus T17
  MIC: 4 mg/L (≈ 7.37 µM)
S. aureus 133 [1]; [7]
  MIC: 2 mg/L (≈ 3.69 µM)
[2]; [8]
  MIC: 4 mg/L (≈ 7.37 µM)
[3]
  IC50: 0.7 µM
